The record followed here is US6723680B2, “Composition for regulation of gametophytic self-incompatibility, control method of gametophytic self-incompatibility of a plant and the plant self-pollinated by using said control method” (Istech Co., Ltd., priority 2000, dated 2004).

The test system of the test is style-specific S1 RNase and S2 RNase. Put plainly: Inhibition of style-specific RNase activity. It is filed as biochemical, Fuji apple. As to conditions: 1 mM DEPC. The method, then:
The activity variation of the style-specific S1 RNase and S2 RNase purified in the Example 1-4 was investigated by adding chemicals acting as an inhibitor of protein degradation enzyme. RNase activity was measured by adding general stimulators of RNase activity, inhibitors of RNase activity commercially available and inhibitor candidate of a style-specific RNase of the present invention (Singh A. et al., Plant Physiology, 96:61-68, 1991). Among them, 1 mM EDTA, which is a representative inhibitor of protein degradation enzyme, 1 mM CaCl2, a stimulator of RNase activity, 1 mM DEPC (Sigma), a fatally poisonous inhibitor of RNase activity commercially available, and 1 mM ZnSO4 and 1 mM CuSO4, inhibitor candidates of the style-specific RNase was added respectively to mesure RNase activity.

Regarding `CCOC(=O)OC(=O)OCC` [DEPC], the “style-specific RNase activity” value is listed as “inhibited”.
